The source of these data is patent US11613531B2, “Inhibitors of RHO associated coiled-coil containing protein kinase” (Kadmon Corporation, LLC, priority 2017, dated 2023).

Like-named read-outs stand apart in the source and are kept apart here.

In assay [1] the test system is ppMlc (T18/S19) levels in A7R5 cells. Put plainly: A7R5 in-cell ELISA (pMLC). It is filed as cell-based, Rat. As to conditions: for inhibition at 10 µM / IC50: Rattus norvegicus, A7R5, A7R5 cells; for inhibition at 10 µM: read-out: pMLC % inh A7R5 @ [conc]; for IC50: ppMlc (T18/S19). How it is done: Determination of Compounds ROCK Inhibitory Activity in A7R5Cells.
Rat aortic smooth muscle cell line, A7R5, cells were seeded with density of 5,000 cells/well in a 96-well plates for 24 hours and subsequently treated for 90 min with testing compounds. Cells were then fixed and processed according to the In-Cell ELISA Colorimetric Detection Kit manual (Thermo Scientific).
An A7R5 in-cell Elisa assay was performed. A7R5 cells were treated with 9 points 2 fold serial dilution of compounds and ppMlc (T18/S19) levels were determined to calculate cellular IC50 values of the compounds. Compounds of the invention gave in cell IC50s under 100 nM.
(§1) In vitro activities for the compounds were measured with Z′-lyte kinase kit (ThermoFisher Scientific). The percent inhibition rate was calculated by normalizing the kinase activity value obtained with 1 μM compound treatment against DMSO control value and then applied to the formula, [1-(compound/DMSO)]×100%. IC50s were calculated using the nonlinear regression curve fit function of the GraphPad Prism software with kinase activities data measured with 9 points 2-fold serial dilution of compounds treatment. In cell pMLC IC50s were calculated with data obtained from A7R5 cell experiments. A7R5 cells were treated with 9 points 2-fold serial dilution of compounds and ppMlc (T18/S19) levels were determined to calculate cellular IC50 values of the compounds using the nonlinear regression curve fit function of the GraphPad Prism software. NIH3T3 cells stably expressing ACTA2-promoter-driven-luciferase were applied to measure ROCK compounds functional IC50s in cells. Cells were plated in 96 well plates to confluence and treated with 9 points serial dilution of compounds in combination with TGFβ1 for 24 hr. Luciferase activities were measured and compound's IC50s were calculated using the nonlinear regression curve fit function of the GraphPad Prism software.

The target in assay [2] is Recombinant ROCK2 (amino acids 1-552) (Homo sapiens (Human), UniProt O75116). Put plainly: Z′-Lyte kinase assay, ROCK2. It is filed as biochemical. The following applies: for inhibition at 1 µM: 1 μM compound; for inhibition at 1 µM / inhibition at 0.5 µM: read-out: ROCK2 % inh. @ [conc]; for inhibition at 0.5 µM: 0.5 μM compound. How it is done: Determination of Compound's ROCK Inhibitory Activity In Vitro (Z'Lyte Assay).
Sequence of Recombinant ROCK2 (amino acids 1-552) (O75116 1-552): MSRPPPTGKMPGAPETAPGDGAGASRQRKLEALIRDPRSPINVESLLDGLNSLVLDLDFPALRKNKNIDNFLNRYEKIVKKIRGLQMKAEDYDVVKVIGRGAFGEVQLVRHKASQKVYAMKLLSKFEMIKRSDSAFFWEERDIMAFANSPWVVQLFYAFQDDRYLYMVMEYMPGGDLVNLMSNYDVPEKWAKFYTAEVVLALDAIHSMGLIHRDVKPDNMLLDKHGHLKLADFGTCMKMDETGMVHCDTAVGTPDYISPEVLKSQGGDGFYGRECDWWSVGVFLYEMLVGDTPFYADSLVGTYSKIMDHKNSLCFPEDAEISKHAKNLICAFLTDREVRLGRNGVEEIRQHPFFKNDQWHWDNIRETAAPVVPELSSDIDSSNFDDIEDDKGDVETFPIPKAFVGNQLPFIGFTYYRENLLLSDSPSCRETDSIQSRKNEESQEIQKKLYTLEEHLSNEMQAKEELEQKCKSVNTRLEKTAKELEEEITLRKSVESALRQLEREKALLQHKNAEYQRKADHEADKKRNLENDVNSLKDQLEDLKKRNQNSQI
Recombinant ROCK1 (amino acids 1-535) and ROCK2 (amino acids 1-552) proteins were purchased from ThermoFisher Scientific. Compound's activities were measured by Z′-lyte kinase kit (ThermoFisher Scientific) and IC50 was calculated
as §1

Turning to `Clc1cnc(N2CCCNCC2)nc1Nc1ccc2[nH]ncc2c1` [Example 4, N-(5-chloro-2-(1,4-diazepan-1-yl)pyrimidin-4-yl)-1H-indazol-5-amine], the inhibition at 10 µM in assay [1] (10 μM compound) stood at 95.3%. For the same compound, the half-maximal inhibitory concentration (IC50) stood at 312 nM in assay [1] and 139 nM in assay [2] (9 points 2-fold serial dilution).

`c1ccc2c(Nc3ccc4[nH]ncc4c3)nc(N3CCCNCC3)nc2c1` [Example 6, 2-(1,4-diazepan-1-yl)-N-(1H-indazol-5-yl)quinazolin-4-amine]: in assay [1] (10 μM compound), the inhibition at 10 µM came out at 94.6%. Also, the IC50 in assay [1] came out at 1800 nM. Also, in assay [2], the inhibition at 1 µM is 85.7%.

`Cc1nc(N2CCCNCC2)nc(Nc2ccc3[nH]ncc3c2)c1C` [Example 8, N-(2-(1,4-diazepan-1-yl)-5,6-dimethylpyrimidin-4-yl)-1H-indazol-5-amine]: the inhibition at 10 µM in assay [1] (10 μM compound) stood at 89%. The half-inhibitory concentration (IC50) in assay [1] was 1600 nM. Besides, the inhibition at 1 µM in assay [2] was 83.3%.

With `c1cc(Nc2ccc3[nH]ncc3c2)nc(N2CCOCC2)n1` [Example 33, N-(2-morpholinopyrimidin-4-yl)-1H-indazol-5-amine], in assay [2], the IC50 was greater than 10000 nM.

Take `Fc1cnc(N2CC(C3CCNCC3)c3ccccc32)nc1Nc1ccc2[nH]ncc2c1` (centres unmarked) [Example 175, N-(5-fluoro-2-(3-(piperidin-4-yl)indolin-1-yl)pyrimidin-4-yl)-1H-indazol-5-amine]: in assay [2], the inhibition at 1 µM was determined as 10.5%.

Take `OC1CC2CCC(C1)N2c1nccc(Nc2ccc3[nH]ncc3c2)n1` (centres unmarked) [Example 223, 8-(4-((1H-indazol-5-yl)amino)pyrimidin-2-yl)-8-azabicyclo[3.2.1]octan-3-ol]: the IC50 in assay [2] was found to be 15.8 nM.

With `CC1(C)CN(c2nccc(Nc3ccc(-c4cn[nH]c4)cc3)n2)CCN1` [Example 255, N-(4-(1H-pyrazol-4-yl)phenyl)-2-(3,3-dimethylpiperazin-1-yl)pyrimidin-4-amine], the inhibition at 10 µM in assay [1] (10 μM compound) turned out to be 72%. Moreover, in assay [1], the IC50 came to 1360 nM.

As for `CC1CN(c2nccc(Nc3ccc(-c4cn[nH]c4)cc3)n2)CC(C)N1` (centres unmarked) [Example 256, N-(4-(1H-pyrazol-4-yl)phenyl)-2-(3,5-dimethylpiperazin-1-yl)pyrimidin-4-amine], the inhibition at 10 µM in assay [1] (10 μM compound) amounted to 84.5%. Moreover, the IC50 in assay [1] turned out to be 1560 nM.

Consider `c1cc(Nc2ccc(-c3cn[nH]c3)cc2)nc(N2C3CCC2CNC3)n1` [Example 257, N-(4-(1H-pyrazol-4-yl)phenyl)-2-(3,8-diazabicyclo[3.2.1]octan-8-yl)pyrimidin-4-amine], for which, in assay [1] (10 μM compound), the inhibition at 10 µM was found to be 85.6%. For the same compound, the half-inhibitory concentration (IC50) in assay [1] is 2070 nM.

On to `c1cc(Nc2ccc(-c3cn[nH]c3)cc2)nc(N2CC3CCC(C2)N3)n1` [Example 258, N-(4-(1H-pyrazol-4-yl)phenyl)-2-(3,8-diazabicyclo[3.2.1]octan-3-yl)pyrimidin-4-amine], for which the inhibition at 10 µM in assay [1] (10 μM compound) stood at 26%.

On to `c1ccc(C2CN(c3nccc(Nc4ccc(-c5cn[nH]c5)cc4)n3)CCN2)cc1` (centres unmarked) [Example 260, N-(4-(1H-pyrazol-4-yl)phenyl)-2-(3-phenylpiperazin-1-yl)pyrimidin-4-amine], for which the inhibition at 10 µM in assay [1] (10 μM compound) was determined as 18%.

As for `c1cc(-c2cn[nH]c2)ccc1Nc1nc(N2CCCNCC2)nc2c1COC2` [Example 262, N-(4-(1H-pyrazol-4-yl)phenyl)-2-(1,4-diazepan-1-yl)-5,7-dihydrofuro[3,4-d]pyrimidin-4-amine], the inhibition at 10 µM in assay [1] (10 μM compound) came to 87%. For the same compound, the IC50 in assay [1] came to 3650 nM.

For `Cc1nc(N2CCCNCC2)nc(Nc2ccc(-c3cn[nH]c3)cc2)c1C` [Example 266, N-(4-(1H-pyrazol-4-yl)phenyl)-2-(1,4-diazepan-1-yl)-5,6-dimethylpyrimidin-4-amine], the inhibition at 10 µM in assay [1] (10 μM compound) was found to be 74%. Moreover, the 50% inhibitory concentration (IC50) in assay [1] worked out at 3150 nM.

In the case of `c1ccc2c(Nc3ccc(-c4cn[nH]c4)cc3)nc(N3CCCNCC3)nc2c1` [Example 268, N-(4-(1H-pyrazol-4-yl)phenyl)-2-(1,4-diazepan-1-yl)quinazolin-4-amine], in assay [1] (10 μM compound), the inhibition at 10 µM amounted to 63.7%. Also, in assay [1], the 50% inhibitory concentration (IC50) is 3720 nM.

For `c1cc(-c2ccc(Nc3nc(N4C5CNCC4C5)nc4c3CNC4)cc2)ccn1` [Example 292, 2-(3,6-diazabicyclo[3.1.1]heptan-6-yl)-N-(4-(pyridin-4-yl)phenyl)-6,7-dihydro-5H-pyrrolo[3,4-d]pyrimidin-4-amine], the inhibition at 0.5 µM in assay [2] was 10%.

On to `Cc1c(Nc2nc(N3C4CNCC3C4)ncc2Cl)ccc2[nH]ncc12` [Example 293, N-(2-(3,6-diazabicyclo[3.1.1]heptan-6-yl)-5-chloropyrimidin-4-yl)-4-methyl-1H-indazol-5-amine], for which the inhibition at 0.5 µM in assay [2] turned out to be 1%.

As to `Cc1c(Nc2nc(N3C4CCC3CNC4)ncc2Cl)ccc2[nH]ncc12` [Example 294, N-(2-(3,8-diazabicyclo[3.2.1]octan-8-yl)-5-chloropyrimidin-4-yl)-4-methyl-1H-indazol-5-amine], the inhibition at 0.5 µM in assay [2] stood at 0%.

`c1cc(-c2ccc(Nc3nc(N4C5CNCC4C5)nc4c3COCC4)cc2)ccn1` [Example 311, 2-(3,6-diazabicyclo[3.1.1]heptan-6-yl)-N-(4-(pyridin-4-yl)phenyl)-7,8-dihydro-5H-pyrano[4,3-d]pyrimidin-4-amine]: the IC50 in assay [2] was greater than 1000 nM.

For the compound `c1cc(-c2ccc(Nc3nc(N4C5CNCC4C5)nc4c3COC4)cc2)ccn1` [Example 312, 2-(3,6-diazabicyclo[3.1.1]heptan-6-yl)-N-(4-(pyridin-4-yl)phenyl)-5,7-dihydrofuro[3,4-d]pyrimidin-4-amine], the IC50 in assay [2] was greater than 1000 nM.

Take `Cc1cc2[nH]ncc2cc1Nc1nc(N2C3CCC2CNC3)ncc1Cl` [Example 318, N-(2-(3,8-diazabicyclo[3.2.1]octan-8-yl)-5-chloropyrimidin-4-yl)-6-methyl-1H-indazol-5-amine]: the inhibition at 0.5 µM in assay [2] stood at 50%.

Regarding `Clc1cnc(N2CC3CNCC(C2)O3)nc1Nc1ccc2[nH]ncc2c1` [Example 325, N-(2-((1,5)-9-oxa-3,7-diazabicyclo[3.3.1]nonan-3-yl)-5-chloropyrimidin-4-yl)-1H-indazol-5-amine], in assay [2], the inhibition at 0.5 µM is 25%.

Take `c1ccc2c(Nc3ccc4[nH]ncc4c3)nc(N3C4CCC3CNC4)nc2c1` [Example 330, 2-(3,8-diazabicyclo[3.2.1]octan-8-yl)-N-(1H-indazol-5-yl)quinazolin-4-amine]: in assay [2], the IC50 is 11 nM.

For the compound `CN(C)C1CC2CC1CN2c1ncc(F)c(Nc2ccc3[nH]ncc3c2)n1` (centres unmarked) [Example 335, N-(2-(5-(dimethylamino)-2-azabicyclo[2.2.1]heptan-2-yl)-5-fluoropyrimidin-4-yl)-1H-indazol-5-amine], the half-inhibitory concentration (IC50) in assay [2] is greater than 1000 nM.

Take `CN(C)C1CC2CCC(C1)N2c1nccc(Nc2ccc3[nH]ncc3c2)n1` (centres unmarked) [Example 337, N-(2-(3-(dimethylamino)-8-azabicyclo[3.2.1]octan-8-yl)pyrimidin-4-yl)-1H-indazol-5-amine]: the IC50 in assay [2] is greater than 1000 nM.

In the case of `c1cc(Nc2ccnc(N3CCNCC3)n2)cc(-c2ccncc2)c1` [Example 345, 2-(piperazin-1-yl)-N-(3-(pyridin-4-yl)phenyl)pyrimidin-4-amine], in assay [1] (10 μM compound), the inhibition at 10 µM was determined as 23.7%.

For the compound `O=c1ccc(-c2ccc(Nc3ccnc(N4CCNCC4)n3)cc2)c[nH]1` [Example 349, 5-(4-((2-(piperazin-1-yl)pyrimidin-4-yl)amino)phenyl)pyridin-2(1H)-one], in assay [1] (10 μM compound), the inhibition at 10 µM is 4.21%.

For `Nc1nnc(-c2ccc(Nc3ccnc(N4CCNCC4)n3)cc2)o1` [Example 362, 5-(4-((2-(piperazin-1-yl)pyrimidin-4-yl)amino)phenyl)-1,3,4-oxadiazol-2-amine], in assay [1] (10 μM compound), the inhibition at 10 µM worked out at 5.14%.

Take `c1cc(Nc2ccc(-c3cncs3)cc2)nc(N2CCNCC2)n1` [Example 363]: in assay [1] (A7R5 cells, 10 μM compound), the “pMLC % inh A7R5 @ [conc]” value is reported as 10.22%.

Regarding `O=c1[nH]c2ccc(Nc3ccnc(N4CCNCC4)n3)cc2[nH]1` [Example 364, 5-((2-(piperazin-1-yl)pyrimidin-4-yl)amino)-1,3-dihydro-2H-benzo[d]imidazol-2-one], the inhibition at 10 µM in assay [1] (10 μM compound) is 6.18%.

For the compound `c1cc(Nc2ccc(-c3ccnc4[nH]cnc34)cc2)nc(N2CCNCC2)n1` [Example 366, N-(4-(3H-imidazo[4,5-b]pyridin-7-yl)phenyl)-2-(piperazin-1-yl)pyrimidin-4-amine], the inhibition at 10 µM in assay [1] (10 μM compound) came out at 4.95%.

Regarding `c1cc(Nc2ccc(-c3nnco3)cc2)nc(N2CCNCC2)n1` [Example 367, N-(4-(1,3,4-oxadiazol-2-yl)phenyl)-2-(piperazin-1-yl)pyrimidin-4-amine], in assay [1] (10 μM compound), the inhibition at 10 µM worked out at 7.2%.

Regarding `c1cc(Nc2cnc3[nH]ccc3c2)nc(N2CCNCC2)n1` [Example 369, N-(2-(piperazin-1-yl)pyrimidin-4-yl)-1H-pyrrolo[2,3-b]pyridin-5-amine], the inhibition at 10 µM in assay [1] (10 μM compound) turned out to be 0.9%.
